Measured values: patent US12187723B2 (BRISTOL-MYERS SQUIBB COMPANY, priority 2019, dated 2025)

The molecules below were run against T1, human TLR7 (Homo sapiens, UniProt Q9NYK1) (assay: TLR7 inhibition reporter assay (HEK-Blue SEAP)). Conditions: HEK-Blue cells overexpressing human TLR7, gardiquimod 7.5 μM, 22 hour incubation.
T1 construct: host or cells: HEK-Blue cells
T1 sequence (Q9NYK1 27-1049): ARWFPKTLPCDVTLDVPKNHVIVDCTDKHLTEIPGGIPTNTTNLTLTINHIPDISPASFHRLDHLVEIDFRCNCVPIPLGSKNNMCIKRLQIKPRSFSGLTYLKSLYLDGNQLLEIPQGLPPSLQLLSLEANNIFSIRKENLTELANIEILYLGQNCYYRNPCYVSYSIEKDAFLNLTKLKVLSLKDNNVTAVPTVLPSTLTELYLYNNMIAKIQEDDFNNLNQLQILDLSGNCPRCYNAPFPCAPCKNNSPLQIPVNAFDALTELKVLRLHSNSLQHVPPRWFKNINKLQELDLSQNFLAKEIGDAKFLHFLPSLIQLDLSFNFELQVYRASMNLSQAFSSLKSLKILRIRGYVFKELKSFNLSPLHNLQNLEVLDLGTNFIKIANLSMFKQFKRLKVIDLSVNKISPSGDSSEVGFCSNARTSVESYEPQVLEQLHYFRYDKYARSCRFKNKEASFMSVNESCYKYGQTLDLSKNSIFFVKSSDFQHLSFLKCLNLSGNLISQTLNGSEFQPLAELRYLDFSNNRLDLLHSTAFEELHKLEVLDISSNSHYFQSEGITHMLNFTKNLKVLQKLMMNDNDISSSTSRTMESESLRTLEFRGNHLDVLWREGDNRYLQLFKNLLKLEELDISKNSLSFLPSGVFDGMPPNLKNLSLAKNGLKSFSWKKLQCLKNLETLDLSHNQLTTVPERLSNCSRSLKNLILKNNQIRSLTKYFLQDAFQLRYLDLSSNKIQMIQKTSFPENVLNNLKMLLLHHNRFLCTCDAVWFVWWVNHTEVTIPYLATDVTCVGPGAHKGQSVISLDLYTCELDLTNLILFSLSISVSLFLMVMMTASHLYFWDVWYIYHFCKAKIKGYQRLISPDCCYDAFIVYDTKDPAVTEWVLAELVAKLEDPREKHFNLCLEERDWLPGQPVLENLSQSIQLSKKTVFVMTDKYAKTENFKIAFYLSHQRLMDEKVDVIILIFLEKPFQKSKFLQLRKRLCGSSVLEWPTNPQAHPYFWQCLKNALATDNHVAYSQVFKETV
Type: cell-based
In short: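 Dose-response testing from 0.05 nM to 50 μM final was done on reporter cells for 22 hours at 37° C. Secreted SEAP was then detected, and inhibition was calculated as percent reduction of the agonist-plus-DMSO signal compared with wells given a known inhibitor.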

Row | SMILES | IC50 [nM]
1 | COc1cc(-c2cc3[nH]c(=O)n([C@@H]4CCCN(C5COC5)C4)c3cc2C(C)C)cn2ncnc12 [Example 135, (R)-6-isopropyl-5-(8-methoxy-[1,2,4]triazolo[1,5-a]pyridin-6-yl)-1-(1-(oxetan-3-yl)piperidin-3-yl)-1,3-dihydro-2H-benzo[d]imidazol-2-one] | 26.3
2 | COc1cc(-c2cc3[nH]c(=O)n([C@@H]4CCCN(C5CCOCC5)C4)c3cc2C(C)C)cn2ncnc12 [Example 143, (R)-6-isopropyl-5-(8-methoxy-[1,2,4]triazolo[1,5-a]pyridin-6-yl)-1-(1-(tetrahydro-2H-pyran-4-yl)piperidin-3-yl)-1,3-dihydro-2H-benzo[d]imidazol-2-one] | 3.35
3 | Cc1c(-c2cc3[nH]c(=O)n([C@@H]4CCCN(C(C)C)C4)c3cc2C(C)C)cn2ncnc2c1C [Example 145, (R)-5-(7,8-dimethyl-[1,2,4]triazolo[1,5-a]pyridin-6-yl)-6-isopropyl-1-(1-isopropylpiperidin-3-yl)-1,3-dihydro-2H-benzo[d]imidazol-2-one] | 3.7
4 | Cc1c(-c2cc3[nH]c(=O)n([C@@H]4CCCN(C5COC5)C4)c3cc2C(C)C)cn2ncnc2c1C [Example 146, (R)-5-(7,8-dimethyl-[1,2,4]triazolo[1,5-a]pyridin-6-yl)-6-isopropyl-1-(1-(oxetan-3-yl)piperidin-3-yl)-1,3-dihydro-2H-benzo[d]imidazol-2-one] | 182
5 | Cc1c(-c2cc3[nH]c(=O)n([C@@H]4CCCN(C)C4)c3cc2C(C)C)cn2ncnc2c1C [Example 147, (R)-5-(7,8-dimethyl-[1,2,4]triazolo[1,5-a]pyridin-6-yl)-6-isopropyl-1-(1-methylpiperidin-3-yl)-1,3-dihydro-2H-benzo[d]imidazol-2-one] | 66.9
6 | Cc1c(-c2cc3[nH]c(=O)n([C@@H]4CCCN(CC5CCOCC5)C4)c3cc2C(C)C)cn2ncnc2c1C [Example 149, (R)-5-(7,8-dimethyl-[1,2,4]triazolo[1,5-a]pyridin-6-yl)-6-isopropyl-1-(1-((tetrahydro-2H-pyran-4-yl)methyl)piperidin-3-yl)-1,3-dihydro-2H-benzo[d]imidazol-2-one] | 3.97
7 | CCCN1CCC[C@@H](n2c(=O)[nH]c3cc(-c4cn5ncnc5c(C)c4C)c(C(C)C)cc32)C1 [Example 150, (R)-5-(7,8-dimethyl-[1,2,4]triazolo[1,5-a]pyridin-6-yl)-6-isopropyl-1-(1-propylpiperidin-3-yl)-1,3-dihydro-2H-benzo[d]imidazol-2-one] | 5.52
8 | CCC(CC)CN1CCC[C@@H](n2c(=O)[nH]c3cc(-c4cn5ncnc5c(C)c4C)c(C(C)C)cc32)C1 [Example 151, (R)-5-(7,8-dimethyl-[1,2,4]triazolo[1,5-a]pyridin-6-yl)-1-(1-(2-ethylbutyl)piperidin-3-yl)-6-isopropyl-1,3-dihydro-2H-benzo[d]imidazol-2-one] | 11
9 | CCCN1CCC(n2c(=O)[nH]c3cc(-c4cc(OC)c5ncnn5c4)c(C(C)C)cc32)CC1 [Example 155, 6-isopropyl-5-(8-methoxy-[1,2,4]triazolo[1,5-a]pyridin-6-yl)-1-(1-propylpiperidin-4-yl)-1,3-dihydro-2H-benzo[d]imidazol-2-one] | 6.33
10 | COc1cc(-c2cc3[nH]c(=O)n(C4CCN(C5CCC5)CC4)c3cc2C(C)C)cn2ncnc12 [Example 156, 1-(1-cyclobutylpiperidin-4-yl)-6-isopropyl-5-(8-methoxy-[1,2,4]triazolo[1,5-a]pyridin-6-yl)-1,3-dihydro-2H-benzo[d]imidazol-2-one] | 17.9
11 | COc1cc(-c2cc3[nH]c(=O)n(C4CCN(C5COC5)CC4)c3cc2C(C)C)cn2ncnc12 [Example 157, 6-isopropyl-5-(8-methoxy-[1,2,4]triazolo[1,5-a]pyridin-6-yl)-1-(1-(oxetan-3-yl)piperidin-4-yl)-1,3-dihydro-2H-benzo[d]imidazol-2-one] | 76.8
12 | COc1cc(-c2cc3[nH]c(=O)n(C4CCN(C5CCOCC5)CC4)c3cc2C(C)C)cn2ncnc12 [Example 158, 6-isopropyl-5-(8-methoxy-[1,2,4]triazolo[1,5-a]pyridin-6-yl)-1-(1-(tetrahydro-2H-pyran-4-yl)piperidin-4-yl)-1,3-dihydro-2H-benzo[d]imidazol-2-one] | 11.2
13 | COc1cc(-c2cc3[nH]c(=O)n(C4CCN(CC5CCOCC5)CC4)c3cc2C(C)C)cn2ncnc12 [Example 159, 6-isopropyl-5-(8-methoxy-[1,2,4]triazolo[1,5-a]pyridin-6-yl)-1-(1-((tetrahydro-2H-pyran-4-yl)methyl)piperidin-4-yl)-1,3-dihydro-2H-benzo[d]imidazol-2-one] | 7.23

Stronger by IC50, values ahead:

Row | IC50 [nM] | SMILES
14 | 2.73 | CCN1CCC[C@@H](n2c(=O)[nH]c3cc(-c4cc(OC)c5ncnn5c4)c(C(C)C)cc32)C1 [Example 138, (R)-1-(1-ethylpiperidin-3-yl)-6-isopropyl-5-(8-methoxy-[1,2,4]triazolo[1,5-a]pyridin-6-yl)-1,3-dihydro-2H-benzo[d]imidazol-2-one]
15 | 2.18 | COc1cc(-c2cc3[nH]c(=O)n([C@@H]4CCCN(C)C4)c3cc2C(C)C)cn2ncnc12 [Example 136, (R)-6-isopropyl-5-(8-methoxy-[1,2,4]triazolo[1,5-a]pyridin-6-yl)-1-(1-methylpiperidin-3-yl)-1,3-dihydro-2H-benzo[d]imidazol-2-one]
16 | 2.12 | COc1cc(-c2cc3[nH]c(=O)n(C4CCN(C)CC4)c3cc2C(C)C)cn2ncnc12 [Example 154, 6-isopropyl-5-(8-methoxy-[1,2,4]triazolo[1,5-a]pyridin-6-yl)-1-(1-methylpiperidin-4-yl)-1,3-dihydro-2H-benzo[d]imidazol-2-one]
17 | 1.98 | CCCN1CCC[C@@H](n2c(=O)[nH]c3cc(-c4cc(OC)c5ncnn5c4)c(C(C)C)cc32)C1 [Example 134, (R)-6-isopropyl-5-(8-methoxy-[1,2,4]triazolo[1,5-a]pyridin-6-yl)-1-(1-propylpiperidin-3-yl)-1,3-dihydro-2H-benzo[d]imidazol-2-one]
18 | 1.3 | COc1cc(-c2cc3[nH]c(=O)n([C@@H]4CCCN(CC5CCC5)C4)c3cc2C(C)C)cn2ncnc12 [Example 140, (R)-1-(1-(cyclobutylmethyl)piperidin-3-yl)-6-isopropyl-5-(8-methoxy-[1,2,4]triazolo[1,5-a]pyridin-6-yl)-1,3-dihydro-2H-benzo[d]imidazol-2-one]
19 | 0.76 | COc1cc(-c2cc3[nH]c(=O)n([C@@H]4CCCN(CC5CCOCC5)C4)c3cc2C(C)C)cn2ncnc12 [Example 139, (R)-6-isopropyl-5-(8-methoxy-[1,2,4]triazolo[1,5-a]pyridin-6-yl)-1-(1-((tetrahydro-2H-pyran-4-yl)methyl)piperidin-3-yl)-1,3-dihydro-2H-benzo[d]imidazol-2-one]
20 | 0.74 | COc1cc(-c2cc3[nH]c(=O)n([C@@H]4CCCN(C(C)C)C4)c3cc2C(C)C)cn2ncnc12 [Example 137, (R)-6-isopropyl-1-(1-isopropylpiperidin-3-yl)-5-(8-methoxy-[1,2,4]triazolo[1,5-a]pyridin-6-yl)-1,3-dihydro-2H-benzo[d]imidazol-2-one]
21 | 0.64 | COc1cc(-c2cc3[nH]c(=O)n([C@@H]4CCCN(CC5CC5)C4)c3cc2C(C)C)cn2ncnc12 [Example 142, (R)-1-(1-(cyclopropylmethyl)piperidin-3-yl)-6-isopropyl-5-(8-methoxy-[1,2,4]triazolo[1,5-a]pyridin-6-yl)-1,3-dihydro-2H-benzo[d]imidazol-2-one]
22 | 0.58 | COc1cc(-c2cc3[nH]c(=O)n([C@@H]4CCCN(CC(C)(C)C)C4)c3cc2C(C)C)cn2ncnc12 [Example 153, (R)-6-isopropyl-5-(8-methoxy-[1,2,4]triazolo[1,5-a]pyridin-6-yl)-1-(1-neopentylpiperidin-3-yl)-1,3-dihydro-2H-benzo[d]imidazol-2-one]
23 | 0.49 | CCC(CC)CN1CCC[C@@H](n2c(=O)[nH]c3cc(-c4cc(OC)c5ncnn5c4)c(C(C)C)cc32)C1 [Example 148, (R)-1-(1-(2-ethylbutyl)piperidin-3-yl)-6-isopropyl-5-(8-methoxy-[1,2,4]triazolo[1,5-a]pyridin-6-yl)-1,3-dihydro-2H-benzo[d]imidazol-2-one]
24 | 0.12 | COc1cc(-c2cc3[nH]c(=O)n([C@@H]4CCCN(CC(C)C)C4)c3cc2C(C)C)cn2ncnc12 [Example 141, (R)-1-(1-isobutylpiperidin-3-yl)-6-isopropyl-5-(8-methoxy-[1,2,4]triazolo[1,5-a]pyridin-6-yl)-1,3-dihydro-2H-benzo[d]imidazol-2-one]
